Biological target: T1, mGluR2 (Homo sapiens, UniProt Q14416)
T1 construct: expressed in transfected cells
Assay: reversal of [3H] LY341495 binding at mGluR2
Details: [3H] LY341495 radioligand; cells expressing human mGluR subtypes
Protocol: (D. D. Schoepp, et al., Neuropharmacol., 1996, 35, 1661–1672 and 1997, 36, 111).
LY341495 binding with a Ki of less than 30,000 nM at […]. […] (LY341495 is described in Ornstein et al., J. Med. Chem., 1998, 41, 346–357 and J. Med. Chem., 1998, 41, 358 to 378).

T1 sequence (Q14416 19-872): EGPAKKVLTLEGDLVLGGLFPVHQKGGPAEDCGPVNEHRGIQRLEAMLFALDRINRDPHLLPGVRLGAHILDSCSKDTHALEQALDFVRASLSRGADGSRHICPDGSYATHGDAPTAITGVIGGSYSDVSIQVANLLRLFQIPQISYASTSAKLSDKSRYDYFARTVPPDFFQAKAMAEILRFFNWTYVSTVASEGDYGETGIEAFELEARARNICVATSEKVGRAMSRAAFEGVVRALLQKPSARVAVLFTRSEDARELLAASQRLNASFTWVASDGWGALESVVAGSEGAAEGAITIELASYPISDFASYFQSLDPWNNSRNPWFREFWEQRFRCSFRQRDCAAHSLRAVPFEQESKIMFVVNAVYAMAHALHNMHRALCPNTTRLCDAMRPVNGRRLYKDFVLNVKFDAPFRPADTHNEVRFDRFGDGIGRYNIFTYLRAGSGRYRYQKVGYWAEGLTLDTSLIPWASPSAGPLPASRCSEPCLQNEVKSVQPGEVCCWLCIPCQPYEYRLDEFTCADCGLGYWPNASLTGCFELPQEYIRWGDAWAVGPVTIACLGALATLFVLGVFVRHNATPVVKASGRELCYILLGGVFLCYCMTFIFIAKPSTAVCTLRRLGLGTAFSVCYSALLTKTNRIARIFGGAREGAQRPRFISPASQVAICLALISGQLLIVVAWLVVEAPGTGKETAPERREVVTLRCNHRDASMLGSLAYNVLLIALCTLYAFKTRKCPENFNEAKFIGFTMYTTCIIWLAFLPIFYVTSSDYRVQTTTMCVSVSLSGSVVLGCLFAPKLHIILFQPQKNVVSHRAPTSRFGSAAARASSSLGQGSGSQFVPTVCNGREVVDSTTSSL

- Ki: 3.42 µM
SMILES: N[C@H](C(=O)O)[C@@H]1[C@@H](C(=O)O)[C@@H]1C(=O)NCc1ccccc1 (racemic) [Example 1, (2SR, 1′SR, 2′RS, 3′RS)-2-[2′-carboxy-3′-(phenylmethylaminocarbonyl)cyclopropyl]glycine]

— patent US7125871B2, “Excitatory amino acid receptor modulators” (Eli Lilly and Company, priority 2000, dated 2006)
